Here are results for 13 compounds from US8906925B2, “Pyrido[4,3-B]indoles containing rigid moieties” (Medivation Technologies, Inc., priority 2008, dated 2014).

Where two headings read alike, the source gives them in different places.

For assay [1], the target named is T1, human recombinant serotonin (5-Hydroxytryptamine) 5-HT2A receptor (Homo sapiens, UniProt P28223).
T1 construct: expressed in transfected cells; host or cells: Chinese hamster ovary (CHO-K1) cells
Put plainly: Serotonin 5-HT2A radioligand binding ([3H]Ketanserin). To be noted: for inhibition at 0.1 µM: read-out: Inhibition of ligand binding, Serotonin 5-HT2A (percent inhibition of specific binding), compound at 0.1 μM; for inhibition at 1 µM: read-out: Inhibition of ligand binding, Serotonin 5-HT2A (percent inhibition of specific binding), compound at 1 μM. Here is the method:
Compounds of the invention were incubated with 0.5 nM [^3H]Ketanserin for 60 min. at 25° C. Non-specific binding was estimated in the presence of 1 μM Mianserin. Receptor proteins were filtered and washed, the filters were then counted to determine [^3H]Ketanserin specifically bound.

For assay [2], the target named is T2, human recombinant adrenergic α1D receptor (Homo sapiens, UniProt P25100).
T2 construct: expressed in transfected cells; host or cells: human embryonic kidney (HEK-293) cells
T2 sequence (P25100 1-572): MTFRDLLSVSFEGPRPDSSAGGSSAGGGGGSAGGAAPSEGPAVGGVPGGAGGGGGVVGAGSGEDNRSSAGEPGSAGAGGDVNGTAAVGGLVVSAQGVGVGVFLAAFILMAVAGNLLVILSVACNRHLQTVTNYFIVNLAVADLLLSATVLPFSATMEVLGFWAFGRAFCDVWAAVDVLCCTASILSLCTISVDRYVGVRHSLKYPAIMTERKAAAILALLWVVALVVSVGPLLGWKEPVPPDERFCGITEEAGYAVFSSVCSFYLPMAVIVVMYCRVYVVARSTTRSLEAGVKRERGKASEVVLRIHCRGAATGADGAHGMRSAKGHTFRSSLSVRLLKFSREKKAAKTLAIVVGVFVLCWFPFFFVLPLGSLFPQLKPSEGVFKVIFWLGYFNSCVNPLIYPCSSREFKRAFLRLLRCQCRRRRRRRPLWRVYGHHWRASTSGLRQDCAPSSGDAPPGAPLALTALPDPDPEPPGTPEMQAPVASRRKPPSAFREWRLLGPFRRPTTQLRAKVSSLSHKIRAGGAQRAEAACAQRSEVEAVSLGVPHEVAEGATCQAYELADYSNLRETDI
Put plainly: Adrenergic α1D radioligand binding ([3H]Prozosin). To be noted: compound at 1 μM. Here is the method:
Compounds of invention were incubated with 0.6 nM [^3H]Prozosin for 60 min. at 25° C. Non-specific binding was estimated in the presence of 10 μM phentolamine. Receptor proteins were filtered and washed, the filters were then counted to determine [^3H]Prozosin specifically bound. Compounds were screened at 1 μM or lower, using 1% DMSO as vehicle. Biochemical assay results are presented as the percent inhibition of specific binding in Table 9.

Assay [3] deals with T3, human recombinant histamine H2 receptor (Homo sapiens, UniProt P25021).
T3 construct: expressed in transfected cells; host or cells: Chinese hamster ovary (CHO) K1 cells
T3 sequence (P25021 whole entry): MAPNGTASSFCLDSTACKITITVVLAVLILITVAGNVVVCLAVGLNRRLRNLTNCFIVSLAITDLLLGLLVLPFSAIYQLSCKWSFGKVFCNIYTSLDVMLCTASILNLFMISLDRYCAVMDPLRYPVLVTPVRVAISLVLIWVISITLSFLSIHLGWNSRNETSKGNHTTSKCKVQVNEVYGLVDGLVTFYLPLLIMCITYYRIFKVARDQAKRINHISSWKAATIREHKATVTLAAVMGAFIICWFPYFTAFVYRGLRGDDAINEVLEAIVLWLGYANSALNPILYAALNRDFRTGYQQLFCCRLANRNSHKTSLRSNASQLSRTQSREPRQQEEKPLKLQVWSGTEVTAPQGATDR
Put plainly: Histamine H2 radioligand binding ([125I]Aminopotentidine). To be noted: for inhibition at 1 µM: read-out: Histamine Binding (1 μM) H2, percent inhibition of specific binding, 1 μM. In outline: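 CHO-K1 cells expressing human recombinant H2 receptor, 50 mM phosphate buffer pH 7.4; compounds incubated with 0.1 nM [125I]aminopotentidine for 120 min at 25 °C. Nonspecific binding defined with 3 μM tiotidine; specifically bound radioligand counted after filtration and washing.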

In assay [4] the target is human recombinant serotonin (5-Hydroxytryptamine) 5-HT7 receptor (Homo sapiens, UniProt P34969). Put plainly: Serotonin 5-HT7 radioligand binding ([3H]LSD). From the text: Receptor proteins were filtered and washed, the filters were then counted to determine [^3H]LSD specifically bound.
Sequence of human recombinant serotonin (5-Hydroxytryptamine) 5-HT7 receptor (P34969 whole entry): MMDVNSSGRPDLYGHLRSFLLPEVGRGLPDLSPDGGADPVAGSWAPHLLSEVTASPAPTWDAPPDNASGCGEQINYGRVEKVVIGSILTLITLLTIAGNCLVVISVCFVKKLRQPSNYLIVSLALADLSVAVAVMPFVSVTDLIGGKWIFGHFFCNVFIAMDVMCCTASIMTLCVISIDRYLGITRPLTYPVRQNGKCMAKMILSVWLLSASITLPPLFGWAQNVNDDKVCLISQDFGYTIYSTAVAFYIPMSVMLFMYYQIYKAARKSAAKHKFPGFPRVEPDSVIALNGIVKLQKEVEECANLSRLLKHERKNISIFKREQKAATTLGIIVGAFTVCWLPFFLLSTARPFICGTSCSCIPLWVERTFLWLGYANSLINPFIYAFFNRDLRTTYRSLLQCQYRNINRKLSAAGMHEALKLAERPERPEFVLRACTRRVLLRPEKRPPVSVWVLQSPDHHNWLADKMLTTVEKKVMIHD
For assay [5], the target named is T4, human recombinant serotonin (5-Hydroxytryptamine) 5-HT2C receptor (Homo sapiens, UniProt P28335).
T4 construct: expressed in transfected cells; host or cells: Chinese hamster ovary (CHO-K1) cells
T4 sequence (P28335 33-458): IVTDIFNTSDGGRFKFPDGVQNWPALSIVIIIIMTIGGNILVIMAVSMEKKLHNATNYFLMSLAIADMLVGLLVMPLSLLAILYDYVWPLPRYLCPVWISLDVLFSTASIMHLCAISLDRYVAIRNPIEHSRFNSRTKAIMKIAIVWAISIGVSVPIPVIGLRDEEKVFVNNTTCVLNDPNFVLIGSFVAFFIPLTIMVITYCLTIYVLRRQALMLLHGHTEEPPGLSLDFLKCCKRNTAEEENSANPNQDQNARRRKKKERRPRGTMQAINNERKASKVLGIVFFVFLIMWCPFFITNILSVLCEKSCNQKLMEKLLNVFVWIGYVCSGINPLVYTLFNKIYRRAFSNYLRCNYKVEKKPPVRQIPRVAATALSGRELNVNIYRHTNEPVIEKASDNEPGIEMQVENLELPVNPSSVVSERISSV
Nature of the assay: Serotonin 5-HT2C radioligand binding ([3H]Mesulergine). The following applies: for inhibition at 0.1 µM: compound at 0.1 μM; for inhibition at 0.1 µM / inhibition at 1 µM: read-out: Inhibition of ligand binding, Serotonin 5-HT2C (percent inhibition of specific binding). The gist of the method: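 Compounds tested at 1 μM or lower (1% DMSO vehicle) for displacement of 1 nM [3H]Mesulergine over 60 min at 25° C. Specific binding determined by filtration counting, with 1 μM Mianserin defining non-specific binding; values are percent inhibition.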

The mark [6] stands for this setting: percent inhibition of specific binding, read-out: Inhibition of ligand binding, Adrenergic α1D.
The mark [7] stands for this setting: compound at 1 μM, read-out: Inhibition of ligand binding, Serotonin 5-HT7 (percent inhibition of specific binding).
Setting [8] is: read-out: Inhibition of ligand binding, Adrenergic α1D (percent inhibition of specific binding).

T1 sequence (P28223 whole entry): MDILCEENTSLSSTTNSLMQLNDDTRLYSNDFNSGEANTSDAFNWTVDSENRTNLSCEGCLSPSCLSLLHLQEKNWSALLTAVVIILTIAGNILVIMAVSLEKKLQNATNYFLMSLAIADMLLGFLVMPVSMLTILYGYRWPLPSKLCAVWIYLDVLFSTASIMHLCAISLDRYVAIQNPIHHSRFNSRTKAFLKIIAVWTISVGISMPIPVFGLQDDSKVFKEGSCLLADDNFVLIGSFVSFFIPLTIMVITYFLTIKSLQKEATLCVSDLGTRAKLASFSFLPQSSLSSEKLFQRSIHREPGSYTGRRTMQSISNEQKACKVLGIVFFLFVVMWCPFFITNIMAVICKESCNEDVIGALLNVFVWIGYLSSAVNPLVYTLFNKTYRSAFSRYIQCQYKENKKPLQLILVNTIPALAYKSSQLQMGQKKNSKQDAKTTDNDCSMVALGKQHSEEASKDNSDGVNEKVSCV

For the compound `CN1CCc2c(c3cc(Cl)ccc3n2/C=C(\c2ccc(F)cc2)C2CC2)C1` [Compound 203, (Z)-8-chloro-5-(2-cyclopropyl-2-(4-fluorophenyl)vinyl)-2-methyl-2,3,4,5-tetrahydro-1H-pyrido[4,3-b]indole], the inhibition (as a rule, the drop in the measured response relative to a control, in per cent) at 0.1 µM in assay [1] was 98%; in assay [5] it was 101%. The inhibition at 1 µM stood at 100% in assay [1]; 89% in assay [2] (setting [6]); 99% in assay [3]; 95% in assay [4] (setting [7]); 98% in assay [5] (compound at 1 μM).
In the case of `CN1CCc2c(c3cc(C(=O)O)ccc3n2C#Cc2ccc(F)cc2)C1` [Compound No. 482, 5-((4-fluorophenyl)ethynyl)-2-methyl-2,3,4,5-tetrahydro-1H-pyrido[4,3-b]indole-8-carboxylic acid], the inhibition at 1 µM in assay [1] is -8%; in assay [2] (setting [8]), 21%; in assay [3], -3%; in assay [4] (setting [7]) it was 22%; in assay [5] (compound at 1 μM), -12%.
On to `C/C(=C\n1c2c(c3cc(Cl)ccc31)CN(C)CC2)c1ccc(Cl)cc1Cl` [Compound 210, (E)-8-chloro-5-(2-(2,4-dichlorophenyl)prop-1-enyl)-2-methyl-2,3,4,5-tetrahydro-1H-pyrido[4,3-b]indole], for which, in assay [1] (compound at 1 μM, 1 µM), the “Inhibition of ligand binding, Serotonin 5-HT2A (percent inhibition of specific binding)” value is listed as 98%. In assay [2] (percent inhibition of specific binding, 1 µM), the “Inhibition of ligand binding, Adrenergic α1D” value was 17%. The “Histamine Binding (1 μM) H2, percent inhibition of specific binding” value in assay [3] (1 μM) was 96%. Moreover, the “Inhibition of ligand binding, Serotonin 5-HT7 (percent inhibition of specific binding)” value in assay [4] (compound at 1 μM, 1 µM) stood at 65%. In addition, the “Inhibition of ligand binding, Serotonin 5-HT2C (percent inhibition of specific binding)” value in assay [5] (compound at 1 μM, 1 µM) came out at 99%.
As to `Cc1ccc2c(c1)c1c(n2/C=C/c2ccccc2)CCN(C)C1` [Compound 202, (E)-2,8-dimethyl-5-styryl-2,3,4,5-tetrahydro-1H-pyrido[4,3-b]indole], the inhibition at 1 µM in assay [1] is 101%; in assay [2] (setting [6]) it was 98%; in assay [3], 97%; in assay [4] (setting [7]), 91%; in assay [5] (compound at 1 μM), 101%.
As for `Cc1ccc2c(c1)c1c(n2C#Cc2ccc(F)cc2)CCN(C)C1` [Compound No. 478, 5-((4-fluorophenyl)ethynyl)-2,8-dimethyl-2,3,4,5-tetrahydro-1H-pyrido[4,3-b]indole], the inhibition at 1 µM in assay [1] is 99%; in assay [2] (setting [8]), 92%; in assay [3] it was 94%; in assay [4] (setting [7]), 96%; in assay [5] (compound at 1 μM), 110%.
On to `Cc1ccc(C(O)Cn2c3c(c4ccccc42)CN(C)CC3)cc1` (racemic) [Compound 53, racemic-2-(1,2,3,4-tetrahydro-2-methylpyrido[4,3-b]indol-5-yl)-1-p-tolylethanol], for which the inhibition at 1 µM in assay [1] was 100%; in assay [2] (setting [6]), 55%; in assay [3], 58%; in assay [4] (setting [7]), 87%; in assay [5] (compound at 1 μM) it was 82%.
Regarding `C/C(=C\n1c2c(c3cc(Cl)ccc31)CN(C)CC2)c1ccncc1` [Compound 90, (E)-8-chloro-2,3,4,5-tetrahydro-2-methyl-5-(2-(pyridin-4-yl)prop-1-enyl)-1H-pyrido[4,3-b]indole], the inhibition at 0.1 µM is 97% in assay [1]; 82% in assay [4] (compound at 0.1 μM, read-out: Inhibition of ligand binding, Serotonin 5-HT7 (percent inhibition of specific binding)); 85% in assay [5]. For the same compound, the inhibition at 1 µM came out at 100% in assay [1], 93% in assay [2] (setting [6]), 60% in assay [3] and 97% in assay [5] (compound at 1 μM).
With `C/C(=C\n1c2c(c3cc(Cl)ccc31)CN(C)CC2)c1ccccc1F` [Compound 213, (E)-8-chloro-5-(2-(2-fluorophenyl)prop-1-enyl)-2-methyl-2,3,4,5-tetrahydro-1H-pyrido[4,3-b]indole], the inhibition at 1 µM in assay [1] turned out to be 98%; in assay [2] (setting [6]), 76%; in assay [3], 99%; in assay [4] (setting [7]) it was 100%; in assay [5] (compound at 1 μM), 102%.
In the same order, the values of `CN1CCc2c(c3cc(Cl)ccc3n2/C=C(/c2ccc(F)cc2)C2CCC2)C1` [Compound 206, (E)-8-chloro-5-(2-cyclobutyl-2-(4-fluorophenyl)vinyl)-2-methyl-2,3,4,5-tetrahydro-1H-pyrido[4,3-b]indole] are 98%, 102%, 102%, 93% and 98%.
As to `COc1ccc(C#Cn2c3c(c4cc(Cl)ccc42)CN(C)CC3)cc1F` [Compound No. 477, 8-chloro-5-((3-fluoro-4-methoxyphenyl)ethynyl)-2-methyl-2,3,4,5-tetrahydro-1H-pyrido[4,3-b]indole], the inhibition at 1 µM in assay [1] was 95%; in assay [2] (setting [8]) it was 79%; in assay [3], 97%; in assay [4] (setting [7]), 65%; in assay [5] (compound at 1 μM), 99%.
For `CNC(=O)c1ccc2c(c1)c1c(n2C#Cc2ccc(F)cc2)CCN(C)C1` [Compound No. 483, 5-((4-fluorophenyl)ethynyl)-N,2-dimethyl-2,3,4,5-tetrahydro-1H-pyrido[4,3-b]indole-8-carboxamide], the inhibition at 1 µM in assay [1] is 34%; in assay [2] (setting [8]), 59%; in assay [3], 10%; in assay [4] (setting [7]) it was 16%; in assay [5] (compound at 1 μM), 35%.
With `C/C(=C\n1c2c(c3ccccc31)CN(C)CC2)c1ccc(F)cc1` [Compound 205, (E)-5-(2-(4-fluorophenyl)prop-1-enyl)-2-methyl-2,3,4,5-tetrahydro-1H-pyrido[4,3-b]indole], the inhibition at 0.1 µM in assay [1] is 104%; in assay [5] it was 96%. In addition, the inhibition at 1 µM in assay [1] was 97%; in assay [2] (setting [6]), 90%; in assay [3] it was 95%; in assay [4] (setting [7]) it was 102%; in assay [5] (compound at 1 μM), 100%.
As to `C/C(=C\n1c2c(c3cc(Cl)ccc31)CN(C)CC2)c1ccccc1` [compound 106, (E)-8-chloro-2,3,4,5-tetrahydro-2-methyl-5-(2-phenylprop-1-enyl)-1H-pyrido[4,3-b]indole], the inhibition at 1 µM in assay [1] was 98%; in assay [2] (setting [6]), 92%; in assay [3], 99%; in assay [4] (setting [7]) it was 98%; in assay [5] (compound at 1 μM), 98%.
